Source: patent US7169604B1, “Method for PR-39 peptide mediated selective inhibition of IκBα degradation” (Beth Israel Deaconess Medical Center, priority 1998, dated 2007)
Ends that are not written are not given here.

Experiments:
[1] = tested on: ECV304 cells; assay: Cell growth in culture (Coulter cell counts); type: cell-based, human; conditions: 10 μM, 48 hours
Procedure: Prolonged exposure to proteasome inhibitors tend to induce apoptosis in cell culture. To assess the potential cytotoxicity of PR-39, ECV304 cells were cultured in the presence of 10 μM of PR-39, MG132 or lactacystin.
50,000 ECV304 cells were plated in 6 well plates in 10% FBS-M199 and synchronized by serum deprivation in 0.5% FBS-DMEM for 48 hr. At the end of that time, cell culture medium was changed to 10% FBS-M199 and 10 μM of PR-39, lactacystin or buffer (control) were added. Forty eight hours later cell counts were determined using a Coulter Counter (Coulter Instruments, Inc.). All experiments were performed in triplicate and repeated 2 times (mean±SD).

[2] = tested on: U937 cells; assay: Proteasome-dependent degradation of total cellular proteins (35S Met pulse-chase); type: cell-based, human; conditions: 10 μM, 1 hr chase, chloroquin 45 μM, after 16 hr metabolic labeling
Procedure: Therefore the extent of degradation of long-lived cell proteins before or following exposure was compared to either PR-39 or MG132. The result is given by FIG. 3A.
Exponentially proliferating U937 cells were grown in 10% FBS-RPMI 1640 methionine-free medium supplemented with 200 μCi ^35S Met for 16 hr. Cells were then washed with complete RPMI 1640 medium 3 times and cultured in 10% FBS-RPMI (chase) in the presence of 10 μM of either PR-39 or MG132 or an equal volume of PBS. Chloroquin (45 μM) was added to all cultures to prevent the lysosomal protein degradation. 1 hr later the cells were lysed, and TCA soluble ^35S counts were measured in a liquid scintillation counter (LKB). All experiments were carried out in triplicate and repeated three times. The data are shown as mean±standard deviation.

[3] = tested on: IκBα; assay: IκBα phosphorylation in U937 cell culture; type: cell-based, human; conditions: U937 cells, 10 μM pretreatment, TNFα 1 ng/ml, 45 min
Procedure: To explore potential mechanisms of this selective inhibition, the effect of peptide administration on IκBα phosphorylation and ubiquitination was studied. It is known that TNF-α treatment leads to phosphorylation of IκBα, which is required for its subsequent ubiquitination. The result is indicated by FIG. 4A.
U937 cells cultured in the absence (−) or presence (+) of pretreatment with 10 μM PR-39 were exposed to 1 ng/ml TNFα. 45 min later the cells were lysed and subjected to SDS-PAGE and Western blotting with anti-IκBα antibody. Note the increased amount of the typical-appearing phosphorylated IκKBα band in PR-39 treated cells.

[4] = tested on: NFκB; assay: NFκB-dependent luciferase reporter (pNFκB-Luc) in ECV304 cells; type: cell-based, human; conditions: 45 min pretreatment with 10 nM, TNF-α 1 ng/ml
Procedure: The results are presented by FIG. 2A.
The effect of PR-39-mediated inhibition of IκBα degradation on NFκB-dependent transcription was tested in ECV304 cells transiently transfected with pNFκB-Luc reporter vector.

[5] = tested on: IκBα; assay: IκBα ubiquitination in HA-Ub expressing ECV304 cells; type: cell-based, human; conditions: 10 μM pretreatment, TNF-α 1 ng/ml
Procedure: ECV304 cells were stably transfected with a HA-tagged ubiquitin plasmid MT123 (kind gift of Dr. G. Walz, BIDMC). The clone with the highest expression of HA-ubiquitin was treated with 10 μM PR39 for 45 min followed by treatment with 1 ng/ml TNFα for 20 min. At that point, the cells were washed and lysed and IκBα was immunoprecipitated. Following SDS-PAGE and membrane transfer of the immunoprecipitated material, the HA-ubiquitinated IκBα was visualized by Western blotting with an anti-HA antibody (Santa Cruz).
To assess the effect of PR-39 peptide treatment on IκBα ubiquitination in intact cells, a stable ECV304-derived cell line expressing HA-tagged ubiquitin was generated. […] HA-Ub expressing ECV304 cells were exposed to 1 ng/ml TNF-α in the presence (+) or absence (−) of 10 μM PR-39 pretreatment. 45 min later the cells were lysed and subjected to IκBα immunoprecipitation followed by Western blotting of the pellet material with anti-HA antibody. Note the presence of multiple ubiquitinated IκBα intermediaries in PR-39 peptide treated cells but not in control cells.

[6] = target: T1, α7 subunit of the 20S proteasome (Mus musculus, UniProt O70435); assay: Yeast two-hybrid binding of PR-39 to α7 and its fragments; conditions: growth of lacZ+ colonies on selective medium; deletion mutants of mouse α7
T1 construct: made in house; host or cells: yeast (Y190 for the screen, CG1945 for the deletion analysis)
T1 sequence (O70435 1-255): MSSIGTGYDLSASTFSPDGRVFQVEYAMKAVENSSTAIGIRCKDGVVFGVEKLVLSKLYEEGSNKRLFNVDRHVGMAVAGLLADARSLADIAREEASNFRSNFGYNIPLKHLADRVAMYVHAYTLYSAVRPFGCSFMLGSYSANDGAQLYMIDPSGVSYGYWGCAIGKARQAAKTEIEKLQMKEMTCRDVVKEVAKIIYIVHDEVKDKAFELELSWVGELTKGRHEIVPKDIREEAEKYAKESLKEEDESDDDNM
Text: Two-hybrid screening was done using Clontech MATCHMAKER GAL4 System 2 (Clontech). cDNA of porcine PR39 peptide corresponding to the 4th exon (amino acids 131 to 169) was subcloned into pAS2-1 vector as bait. Mouse embryo 3T3 MATCHMAKER cDNA library (Clontech) was screened in the yeast Y190 strain. Plasmids from HIS3/LacZ positive clones were sequenced and co-transformed with bait plasmid back into the Y190 strain to confirm the interaction.
To identify possible intracellular targets of PR-39 peptide action, a yeast two-hybrid screen of mouse CDNA library was performed using the unique 4th exon DNA sequence of porcine PR-39 gene as “bait”. […] All four clones encoded overlapping identical cDNA sequences which are highly homologous to the sequence of the human α7 (HC8) subunit of the 20S proteasome (GeneBank accession AF055983).
Deletion mutants of the mouse α7 subunit were cloned into yeast two-hybrid vector, and the extent of growth of lacZ+ colonies on selective medium following co-transformation with PR-39 construct in the yeast CG1945 was determined.

[7] = tested on: IκBα; assay: TNF-α induced degradation of IκBα in U937 cells; type: cell-based, human; conditions: 45 min pretreatment with 100 nM, TNF-α 1 ng/ml, 10 min
Procedure: Tumor necrosis factor (TNF)-α is known to induce rapid degradation of IκBα by the Ub-proteasome pathway.
As shown by FIG. 1E, PR-39 prevents TNF-a induced degradation of IκBα. U937 cells were cultured in 10% FBs-RPMI medium in the absence (−) or presence of TNF-a (1 ng/ml). 10 min following TNF-α addition, the cells were washed and IκBα protein levels assessed by Western blotting.
Note that a […] 45 min of pretreatment with 100 nM of PR-39 or 10 μM of MG132 or lactacystin (LC) prior to addition of blocked TNF-α, blocked cytokine-induced degradation of IκBα expression.

[8] = tested on: HSP70; assay: HSP70 expression by Western blotting; type: cell-based, human

RRRPRPPYLPRPRPPPFFPPRLPPRIPPGFPPRFPPRFP [PR-39]
cell counts [1]: lack of significant growth inhibition
inhibition of total cell protein degradation [2]: little or no effect
amount of phosphorylated IκBα [3]: increased the amount of the phosphorylated form of IκBα
TNF-α induced increase in luciferase activity [4]: completely blocked
ubiquitinated IκBα in cells [5]: accumulation of more ubiquitinated IκBα complexes
binding of PR-39 to α7 and its fragments [6]: only the full length a7 construct was able to bind to PR-39
TNF-α caused decline of the level of IκBα [7]: markedly reduced
HSP70 expression ([8]; U937 cells, 1 μM, 3 hr exposure): lack of induction of HSP70 expression
HSP70 levels ([8]; cultured ECV304 cells, 10 μM): failed to stimulate HSP70 accumulation
